Source: US20220168300A1, “Methods of Managing Vascular Conditions and Diabetic Peripheral Neuropathies” (Emory University, priority 2019, published 2022)

Tests used:
[1] = Blood glucose and body weight in diabetic mice; type: in vivo; conditions: 50 mg/kg/day intraperitoneal for 4 weeks
Protocol: To investigate the preventive therapeutic effects of direct injection of belinostat on diabetic nerves, streptozotocin (STZ)-induced diabetic mice were randomly assigned to solvent-treated (DM) as vehicle controls or HDAC inhibitor-treated (DM+HDACi) groups. […] Belinostat was resuspended in 45% (2-hydroypropyl)-beta-cyclodextrin (HP-β-CD) and injected into mice via the intraperitoneal route at 50 mg/kg/day for 4 weeks.

[2] = system: streptozotocin (STZ)-induced diabetic mice; experiment: Sensory and motor nerve conduction velocities in diabetic neuropathy model; type: in vivo
Protocol: To investigate the preventive therapeutic effects of direct injection of belinostat on diabetic nerves, streptozotocin (STZ)-induced diabetic mice were randomly assigned to solvent-treated (DM) as vehicle controls or HDAC inhibitor-treated (DM+HDACi) groups. […] After intraperitoneal injection of belinostat or an equal volume of solvent vehicle (HP-β-CD), both sensory and motor nerve conduction velocities (NCVs) were measured for 18 weeks at every week (n=11-14, each group) from 0 week after treatment. Non-diabetic mice, which received solvent vehicle (HP-j-CD), were used as controls (NDM).

[3] = system: streptozotocin (STZ)-induced diabetic mice; experiment: Tactile allodynia (von Frey hair testing); type: in vivo
Protocol: To investigate the preventive therapeutic effects of direct injection of belinostat on diabetic nerves, streptozotocin (STZ)-induced diabetic mice were randomly assigned to solvent-treated (DM) as vehicle controls or HDAC inhibitor-treated (DM+HDACi) groups. […] To investigate preventive effects of belinostat in diabetic neuropathy, tactile response threshold, thermal withdrawal latency, and rotarod performance were tested. For assay of tactile allodynia, mice were transferred to a glass cage with a wire mesh floor allowing access to the plantar surface of the hind paws. Behavioral accommodation was allowed for approximately 15 min until cage exploration and major grooming activities ceased.

[4] = system: streptozotocin (STZ)-induced diabetic mice; experiment: Paw thermal withdrawal latency; type: in vivo
Protocol: To investigate the preventive therapeutic effects of direct injection of belinostat on diabetic nerves, streptozotocin (STZ)-induced diabetic mice were randomly assigned to solvent-treated (DM) as vehicle controls or HDAC inhibitor-treated (DM+HDACi) groups. […] For measurement of paw thermal withdrawal latency, mice were placed in an observation chamber on top of the thermal testing apparatus and allowed to acclimate to the warmed glass surface (30° C.) and surroundings for 15 min. The mobile heat source was maneuvered to below the center of the right hind paw and turned on, a process that activates a timer and locally warms the glass surface at a rate of approximately 1° C./s. When the mouse withdrew the paw, movement sensors stopped the timer and turned off the heat source. Right hind paw was measured three times and the mean of three measurements used as a composite source for each mouse. The response latency was converted to the response temperature using a time: floor temperature calibration curve that was constructed each day to allow for day-to-day variations in the surface heating rate.

[5] = system: streptozotocin (STZ)-induced diabetic mice; experiment: Rotarod performance test; type: in vivo
Protocol: To investigate the preventive therapeutic effects of direct injection of belinostat on diabetic nerves, streptozotocin (STZ)-induced diabetic mice were randomly assigned to solvent-treated (DM) as vehicle controls or HDAC inhibitor-treated (DM+HDACi) groups. […] For rotarod performance test, mice were placed on a rotarod apparatus to assess motor coordination and physical condition. Before the training session, each mouse was habituated to stay on the spindle with slow constant speed for 5 min. Mice were trained for 5 min at 45 rpm before measurement. The horizontal rod rotating by 45 rpm and the maximal length of observation time for each trial was 5 min.

[6] = system: streptozotocin (STZ)-induced diabetic mice; experiment: Vascularization of sciatic nerves (FITC-conjugated BSL1); type: in vivo; conditions: DM+HDACi, 18 weeks after treatment
[7] = system: streptozotocin (STZ)-induced diabetic mice; experiment: Intraepidermal nerve fiber density (PGP9.5 staining) in hind paw plantar skin; type: in vivo; conditions: DM+HDACi group
Source text: To investigate the preventive therapeutic effects of direct injection of belinostat on diabetic nerves, streptozotocin (STZ)-induced diabetic mice were randomly assigned to solvent-treated (DM) as vehicle controls or HDAC inhibitor-treated (DM+HDACi) groups. […] To evaluate the protective effect of belinostat on diabetic intraepidermal nerve fiber, we stained IENF in hind paw plantar skin with pan-neuronal marker PGP9.5 and counted the number of fibers throughout the epidermis relative to length of tissue.

[8] = system: streptozotocin (STZ)-induced diabetic mice; experiment: Light and electron microscopy of sciatic nerve myelinated fibers; type: in vivo; conditions: DM+HDACi
Source text: To investigate the preventive therapeutic effects of direct injection of belinostat on diabetic nerves, streptozotocin (STZ)-induced diabetic mice were randomly assigned to solvent-treated (DM) as vehicle controls or HDAC inhibitor-treated (DM+HDACi) groups. […] It was examined whether belinostat could affect the ultrastructure of diabetic nerves, which is characterized by morphological alterations in the myelin sheath, a hallmark of DN. Accordingly, light microscopy and transmission electron microscopy were performed on sciatic nerves obtained at 18 weeks after STZ injection. The alternation of myelination pattern was categorized into four groups: decompaction, infolding, focal lysis, and splitting. […] Axonal atrophy is associated with slowing of nerve conduction but is difficult to distinguish from loss of large diameter axons. A reduced index of circularity and an increased g-ratio supports the axonal atrophy. […] A loss of large diameter axons in the peripheral nerve system is the most frequent consequence of metabolic diseases such as diabetes.

[9] = system: HUVECs, Schwann cells (S16), and DRG neurons (ND7/23); experiment: Quantitative RT-PCR of gene expression in cells cultured in diabetic (high glucose) condition; conditions: in vitro experimental data using cells
Protocol: To determine effects of different types of HDAC inhibitors on different target cells, cells were cultured in diabetic condition (450 mg/dl glucose, 7 days) and were treated HDAC inhibitors for 7 days.

[10] = leading to increases in H3/H4 acetylation in brain tissue; cited from earlier work
Diabetic EPCs (D-EPCs) = experiment: DNA methylation (MSRE-PCR) and gene expression of angiogenic genes in D-EPCs; type: cell-based, rat
Source text: Rescue of epigenetic silencing of angiogenic genes in D-EPCs Diabetic EPCs (D-EPCs) have high methylation in the promoter regions of key angiogenic and neurotrophic genes and small molecular epigenetic regulators can reverse these changes, increase gene expression and improve cellular functions. To prepare D-EPCs streptozotocin (STZ) was used to induce diabetic conditions. Differential expression of angiogenic genes was investigated between normal EPCs (N-EPCs) and D-EPCs using an Angiogenesis Microarray kit. The expression of many angiogenic genes was suppressed in D-EPCs. In this disclosure, histone deacetylase (HDAC) inhibitors, i.e., Vorinostat (Zolinza, SAHA), Belinostat (Beleodaq, PXD-101), and Quisinostat (JNJ-26481585), were used. The preliminary experiments were performed using rat EPCs as well as human and rat MSCs. To test the reversible changes of gene expression and epigenetic modifications in D-EPCs by small molecule epigenetic regulators, epigenetic profiling studies were performed using methylation-sensitive restriction enzyme (MSRE)-PCR assays. An HDAC inhibitor, valproic acid (VPA), was used as the epigenetic regulator.

[11] = sciatic nerve 18 weeks after STZ, n=406
[12] = sciatic nerve, P<0.001 versus DM

O=C(/C=C/c1cccc(S(=O)(=O)Nc2ccccc2)c1)NO [Belinostat, (E)-N-hydroxy-3-[3-(phenylsulfamoyl)phenyl]prop-2-enamide]
blood glucose levels and animal body weight compared to DM group [1]: did not significantly alter
sensory NCV ([2]; DM+HDACi group, over 15 weeks, 50 mg/kg/day i.p. for 4 weeks, P<0.001 versus DM): 34.76±0.61 m/s
motor NCV ([2]; DM+HDACi group, over 15 weeks, 50 mg/kg/day i.p. for 4 weeks, P<0.05 versus DM): 51.15±2.60 m/s
nerve conduction velocities (NCVs), effect in words ([2]; FIG. 1A, direct injection, diabetic mice): improved
motor NCVs, effect in words ([2]; FIG. 1B, diabetic mice over 15 weeks): significantly improved
paw withdrawal threshold (von Frey) ([3]; DM+HDACi group at 3 weeks of diabetes): 0.15 ± 0.09 g
paw withdrawal threshold (von Frey) ([3]; DM+HDACi group at 14 weeks after HDAC inhibitor injection, P<0.001 versus DM): 1.33 ± 0.30 g
paw withdrawal thresholds, effect in words ([3]; FIG. 2A, 14 weeks after belinostat injection): recovered to nondiabetic group
paw withdrawal temperature ([4]; DM+HDACi group at 12 weeks of diabetes, P<0.001 versus DM): 34.30±0.24 °C
thermal withdrawal latency, effect in words ([4]; FIG. 2B, HDAC treated group): maintained
rotarod fall latency ([5]; DM+HDACi group, 45 rpm, max 5 min): 254.77 ± 25.23 s
rotarod performance, DM versus DM+HDACi ([5]; FIG. 2C): no significant difference
vascularity in sciatic nerves [6]: increased vascularity
number of intraepidermal nerve fibers (IENF) [7]: 30.61±1.83 IENF/mm
g-ratio of myelinated sciatic nerve [8]: 0.65±0.0044
reduction of axonal circularity compared to NDM ([8]; sciatic nerve): 10.3%
altered myelination pattern: decompaction [8, 11]: 6.35%
altered myelination pattern: focal lysis [8, 11]: 7.22%
altered myelination pattern: infolding [8, 11]: 1.49%
altered myelination pattern: splitting [8, 11]: 0%
axon diameter of myelinated axons [8, 12]: 4.17 ± 0.1 µm
index of circularity of axon [8, 12]: 0.70
upregulation of gene expression in vitro, compared to vorinostat and quisinostat [9]: superior properties

O=C(CCCCCCC(=O)Nc1ccccc1)NO [SAHA, suberoylanilide hydroxamic acid]
blood-brain-barrier (BBB) crossing [10]: can cross the blood-brain-barrier

CCCC(CCC)C(=O)O [VPA, valproic acid]
angiogenic gene expression (Diabetic EPCs (D-EPCs)): enhanced gene expression
DNA methylation at promoters of angiogenic genes (Diabetic EPCs (D-EPCs); MSRE-PCR): reduced DNA methylation
